Consider one compound from US20250332139A1, “PS[…] AND THEIR USE FOR TREATING […] AND NE[…] DISORDERS” (Transcend Therapeutics, Inc., priority 2021, published 2025).

In the assay the test system is Sprague Dawley rats. Put plainly: Forced Swim Test (FST). Type of assay: in vivo, rat. An excerpt: The Forced Swim Test (FST) is a classic, and the most used preclinical behavioral assay to screen compounds with antidepressant-like activity and has high predictive and face validity (Porsolt et al. (1977) Nature 266:730; Borsini and Meli (1988) Psychopharmacology 94:147). The premise of the FST is that when rats are placed into a cylinder filled with water, they will initially try to escape, but over time will become immobile. This increased immobility reflects behavioral despair, modeling a depressive-like state.
Forced Swim Test (FST): In the FST trial, rats were placed in a circular plexiglass container filled with water, with no means of escape. Water temperature was maintained at 22-25° C. and changed for every animal. After an acclimation period, rats were timed for inactivity (failure to struggle), activity, swim time and climbing time. Day 1 consisted of a 15 min acclimation trial, and Day 2 (24 h later) consisted of the 5 min test. A time sampling procedure was employed where animals were observed every 5 sec and scored for immobility, swimming, or climbing. Fluoxetine (10 mg/kg, IP, Sigma Aldrich) or 0.9% sterile saline vehicle (vehicle 3X group) were administered 23.5, 5, and 1 h before testing in the FST. […] The experimenter was blinded to treatment.
Forced Swim Test: In the FST trial, rats were placed in a circular plexiglass container filled with water, with no means of escape. Water temperature was maintained at 22-25° C. and changed for every animal. After an acclimation period, rats were timed for inactivity (failure to struggle), activity, swim time and climbing time. Day 1 consisted of a 15 min acclimation trial, and Day 2 (24 h later) consisted of the 5 min test. A time sampling procedure was employed where animals were observed every 5 sec and scored for immobility, swimming, or climbing. Fluoxetine (10 mg/kg, IP, Sigma Aldrich) or 0.9% sterile saline vehicle (vehicle 3X group) were administered 23.5, 5, and 1 h before testing in the FST. 2C-B (2.5, 10, or 20 mg/kg, IP, Cayman Chemical) or 0.9% saline vehicle (vehicle 1X group) were administered 30 min prior to FST testing. The experimenter was blinded to treatment.
Drug Treatment: Fluoxetine (10 mg/kg, IP, Sigma Aldrich) or 0.9% sterile saline vehicle were administered 23.5, 5, and 1 h before testing in the FST. […] Control animals received fluoxetine alone, methylone alone, or saline vehicle.
Forced Swim Test: In the FST trial, rats were placed in a circular plexiglass container filled with water, with no means of escape. Water temperature was maintained at 22-25° C. and changed for every animal. After an acclimation period, rats were timed for inactivity (failure to struggle), activity, swim time and climbing time. The experimenter and scorer were blind to treatment group. Day 1 consisted of a 15 min acclimation trial, and Day 2 (24 h later) consisted of the 5 min test. A time sampling procedure was employed where animals were observed every 5 sec and scored for immobility, swimming, or climbing.
The FST was performed and scored by an experimenter blind to treatment group according to standard protocols and based on a “modified FST” procedure (Slattery and Cryan (2012) Nat Protoc, 7:1009). Briefly, rats were placed in a circular plexiglass container (29.2 cm diameter, 49.5 cm height) filled with water to a depth of 30 cm so rats could not support themselves by touching the bottom of the tank. Water was maintained at 22-25° C. and was changed for every animal. Day 1 (Training) consisted of a 15 min acclimation trial, and Day 2 (Testing, 24 h later) consisted of the 5 min test. A time sampling procedure was employed where animals were observed every 5 seconds for the duration of the test session (60 counts or 5 minutes) and scored for immobility (defined as the failure to struggle), swimming (defined as a circular movement around the tank), or climbing (defined as an upwards escape behavior). […]

Structures are written as SMILES.

`CNC(C)C(=O)c1ccc2c(c1)OCO2` (stereo not drawn) [methylone, 3,4-methylenedioxy-N-methylcathinone]: the “antidepressant-like effect in FST” value (15 mg/kg PO, single dose 2 hours before test, vs vehicle) is “significant antidepressant-like effect”. Besides, the climbing behavior result (Example 8, Methylone 5 or 15 mg/kg IP) is given as “significantly increased climbing behavior”. The climbing entry (methylone 5-30 mg/kg IP, 30 min before test) is “only increased at the lowest dose”. Besides, the “effectiveness in FST” value (methylone doses of 10 mg/kg or more) is listed as “maximally effective”. For the same compound, the swimming entry (mid and high doses of methylone IP, 30 min before test) is “significantly increased swimming”. Moreover, for the setting “single dose 5, 10, 15, 20, 30 mg/kg IP 30 min before test, vs saline vehicle”, the immobility result was “significantly reduced immobility”.
